From patent publication US12065445B2, “CDK2 inhibitors and methods of using the same” (Cedilla Therapeutics, Inc., priority 2021, dated 2024)

System: Kuramochi cells
Assay: BrdU Cell Proliferation Assay
Type: cell-based
Details: read-out: BrdU - KURAMOCHI.1: IC50
In short: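 Signal is 450 nm absorbance from a peroxidase anti-BrdU ELISA after a 1-hour BrdU label, background-subtracted and normalized to DMSO-treated wells. Kuramochi cells (2,000 per well) had been exposed to compound for 4 days. Dosing used a 10-point dose response in 3-fold steps.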

| SMILES | IC50 [µM] |
| --- | --- |
| CNC(=O)[C@@H](NC(=O)[C@H]1CN(Cc2n[nH]c3ccccc23)CC12CN(C(=O)[C@H]1CC1(C)C)C2)[C@@H](C)OCc1ccccc1 [I-143] | > 10 |
| CNC(=O)[C@@H](NC(=O)[C@@H]1CN(C(=O)c2cnn(Cc3ccccc3)c2)CC12CN(C(=O)[C@H]1CC1(C)C)C2)[C@@H](C)OCC1CCC1 [I-144A] | > 10 |
| CNC(=O)[C@@H](NC(=O)[C@H]1CN(C(=O)c2cnn(Cc3ccccc3)c2)CC12CN(C(=O)[C@H]1CC1(C)C)C2)[C@@H](C)OCC1CCC1 [I-144B] | > 10 |
| CNC(=O)[C@@H](NC(=O)[C@@H]1CN(C(=O)c2cnc(COC)s2)CC12CN(C(=O)[C@H]1CC1(C)C)C2)[C@@H](C)OCC1CCCCC1 [I-145A] | 0.5 to 5 |
| CNC(=O)[C@@H](NC(=O)[C@H]1CN(C(=O)c2cnc(COC)s2)CC12CN(C(=O)[C@H]1CC1(C)C)C2)[C@@H](C)OCC1CCCCC1 [I-145B] | > 10 |
| CNC(=O)[C@@H](NC(=O)[C@H]1CN(C(=O)c2nccs2)CC12CN(C(=O)[C@H]1CC1(C)C)C2)[C@@H](C)OCC1CCCCC1 [I-146] | > 10 |
| CO[C@H]1COCC[C@@H]1NC(=O)[C@H]1CN(C(=O)c2cnn(Cc3ccccc3)c2)CC12CN(C(=O)[C@H]1CC1(C)C)C2 [I-148B] | > 10 |
| C[C@@H](OCC1CCCCC1)[C@H](NC(=O)[C@H]1CN(C(=O)c2cnn(Cc3ccccc3)c2)CC12CN(C(=O)[C@H]1CC1(C)C)C2)C(=O)N1CCC(F)(F)CC1 [I-149B] | > 10 |
| C[C@@H](OCC1CCCCC1)[C@H](NC(=O)[C@H]1CN(C(=O)c2cn[nH]c2)CC12CN(C(=O)[C@H]1CC1(C)C)C2)C(=O)N1CCCCC1 [I-151B] | > 10 |
| C[C@@H](OCC1CCCCC1)[C@H](NC(=O)[C@H]1CN(C(=O)c2cnn(Cc3ccccc3)c2)CC12CN(C(=O)[C@H]1CC1(C)C)C2)C(=O)N1CC(C)(C)C1 [I-153B] | > 10 |
| C[C@@H](OCC1CCCCC1)[C@H](NC(=O)[C@H]1CN(C(=O)c2cn[nH]c2)CC12CN(C(=O)[C@H]1CC1(C)C)C2)C(=O)N1CCC(F)(F)CC1 [I-154B] | > 10 |
| CNC(=O)[C@H](CCCC1CCCCC1)NC(=O)[C@@H]1CN(C(=O)c2cnn(Cc3ccccc3)c2)CC12CN(C(=O)[C@H]1CC1(C)C)C2 [I-155A] | > 10 |
| CNC(=O)[C@H](CCCC1CCCCC1)NC(=O)[C@H]1CN(C(=O)c2cnn(Cc3ccccc3)c2)CC12CN(C(=O)[C@H]1CC1(C)C)C2 [I-155B] | > 10 |
| CNC(=O)[C@@H](NC(=O)[C@@H]1CN(C(=O)c2cnc(C)s2)CC12CN(C(=O)[C@H]1CC1(C)C)C2)[C@@H](C)OCC1CCCCC1 [I-156A] | 5 to 10 |
| CNC(=O)[C@@H](NC(=O)[C@H]1CN(C(=O)c2scnc2Cl)CC12CN(C(=O)[C@H]1CC1(C)C)C2)[C@@H](C)OCC1CCCCC1 [I-157B] | > 10 |
| Cc1noc([C@H](C)NC(=O)[C@@H]2CN(C(=O)c3cnn(Cc4ccccc4)c3)CC23CN(C(=O)[C@H]2CC2(C)C)C3)n1 [I-158A] | > 10 |
| Cc1noc([C@H](C)NC(=O)[C@H]2CN(C(=O)c3cnn(Cc4ccccc4)c3)CC23CN(C(=O)[C@H]2CC2(C)C)C3)n1 [I-158B] | > 10 |
| CNC(=O)[C@@H](NC(=O)C1CN(Cc2n[nH]c3ccccc23)CC12CN(C(=O)[C@H]1CC1(C)C)C2)[C@@H](C)OCc1ccccc1 (stereo partly drawn) [I-159] | > 10 |
| CNC(=O)[C@@H](NC(=O)[C@@H]1CN(C(=O)c2scnc2C)CC12CN(C(=O)[C@H]1CC1(C)C)C2)[C@@H](C)OCC1CCCCC1 [I-160A] | 0.5 to 5 |
| CNC(=O)[C@@H](NC(=O)[C@H]1CN(C(=O)c2scnc2C)CC12CN(C(=O)[C@H]1CC1(C)C)C2)[C@@H](C)OCC1CCCCC1 [I-160B] | > 10 |
| CNC(=O)[C@@H](NC(=O)[C@@H]1CN(C(=O)c2cnc(C(F)(F)F)s2)CC12CN(C(=O)[C@H]1CC1(C)C)C2)[C@@H](C)OCC1CCCCC1 [I-161A] | > 10 |
| CNC(=O)[C@@H](NC(=O)[C@H]1CN(C(=O)c2cnc(C(F)(F)F)s2)CC12CN(C(=O)[C@H]1CC1(C)C)C2)[C@@H](C)OCC1CCCCC1 [I-161B] | > 10 |
| CNC(=O)[C@@H](NC(=O)[C@H]1CN(C(=O)c2sc(COC)nc2C)CC12CN(C(=O)[C@H]1CC1(C)C)C2)[C@@H](C)OCC1CCCCC1 [I-162B] | > 10 |
| CNC(=O)[C@@H](NC(=O)[C@H]1CN(C(=O)c2scnc2C(F)(F)F)CC12CN(C(=O)[C@H]1CC1(C)C)C2)[C@@H](C)OCC1CCCCC1 [I-163B] | > 10 |
| CNC(=O)[C@@H](NC(=O)[C@H]1CN(C(=O)c2cnn(Cc3ccccc3)c2)CC12CN(C(=O)[C@H]1CC1(C)C)C2)[C@H](C)OCC1CCCCC1 [I-165] | > 10 |
| CNC(=O)[C@@H](NC(=O)[C@H]1CN(C(=O)c2cnn(Cc3ccccc3)c2)CC12CN(C(=O)[C@H]1CC1(C)C)C2)[C@@H](C)OCC1CCCCCC1 [I-166B] | 0.5 to 5 |

| SMILES | IC50 [µM] |
| --- | --- |
| CNC(=O)[C@@H](NC(=O)[C@H]1CN(C(=O)c2cnn(Cc3ccc(F)cc3)c2)CC12CN(C(=O)[C@H]1CC1(C)C)C2)[C@@H](C)OCC1CCC(F)(F)CC1 [I-167] | > 10 |
| CC1(C)C[C@@H]1C(=O)N1CC2(CN(C(=O)c3cnn(Cc4ccccc4)c3)C[C@@H]2C(=O)Nc2ccc(Cc3ccccc3)nc2)C1 [I-168] | > 10 |
| CNC(=O)[C@@H](NC(=O)[C@@H]1CN(C(=O)c2nccs2)CC12CN(C(=O)[C@H]1CC1(C)C)C2)[C@@H](C)OCC1CCCCC1 [I-169] | > 10 |
| CNC(=O)[C@@H](NC(=O)[C@@H]1CN(C(=O)c2cnn(Cc3ccc(F)cc3)c2)CC12CN(C(=O)[C@H]1CC1(C)C)C2)[C@@H](C)OCC1CCC(F)(F)CC1 [I-170] | 0.5 to 5 |
| CNC(=O)[C@@H](NC(=O)[C@@H]1CN(C(=O)c2cnn(Cc3ccccc3)c2)CC12CN(C(=O)[C@H]1CC1(C)C)C2)C(C)(C)SCc1ccccc1 [I-171A, (S)-6-(1-benzyl-1H-pyrazole-4-carbonyl)-N—((R)-3-(benzylthio)-3-methyl-1-(methylamino)-1-oxobutan-2-yl)-2-((S)-2,2-dimethylcyclopropane-1-carbonyl)-2,6-diazaspiro[3.4]octane-8-carboxamide] | > 10 |
| CNC(=O)[C@@H](NC(=O)[C@H]1CN(C(=O)c2cnn(Cc3ccccc3)c2)CC12CN(C(=O)[C@H]1CC1(C)C)C2)C(C)(C)SCc1ccccc1 [I-171B] | > 10 |
| C[C@@H]1C[C@H](C)CN(C(=O)[C@@H](NC(=O)C2CN(C(=O)c3cncs3)CC23CN(C(=O)[C@H]2CC2(C)C)C3)[C@@H](C)OCC2CCCCC2)C1 (stereo partly drawn) [I-172] | ≤ 0.5 |
| CNC(=O)[C@@H](NC(=O)[C@H]1CN(C(=O)c2cnn(Cc3ccccc3)c2)CC12CN(C(=O)C(C)(C)C)C2)[C@@H](C)OCC1CCCCC1 [I-174B] | > 10 |
| C[C@@H](OCc1ccccc1)[C@H](NC(=O)[C@H]1CN(C(=O)c2cnn(Cc3ccccc3)c2)CC12CN(C(=O)[C@H]1CC1(C)C)C2)C(N)=O [I-176B] | > 10 |
| CNC(=O)[C@@H](NC(=O)[C@H]1CN(C(=O)c2cnc(CC3CC3)s2)CC12CN(C(=O)[C@H]1CC1(C)C)C2)[C@@H](C)OCC1CCCCC1 [I-177B] | > 10 |
| CNC(=O)[C@@H](NC(=O)[C@H]1CN(C(=O)c2cnc(C3CC3)s2)CC12CN(C(=O)[C@H]1CC1(C)C)C2)[C@@H](C)OCC1CCCCC1 [I-178B] | > 10 |
| CN(C(=O)[C@H]1CCCN(C(=O)[C@@H]2CN(C(=O)c3cnn(Cc4ccccc4)c3)CC23CN(C(=O)[C@H]2CC2(C)C)C3)C1)C1CCCCC1 [I-179] | > 10 |
| CC1(C)C[C@@H]1C(=O)N1CC2(CN(C(=O)c3cnn(Cc4ccccc4)c3)C[C@H]2C(=O)N2CCC[C@H](C(=O)NC3CCCCC3)C2)C1 [I-180] | > 10 |
| CN(C(=O)[C@@H]1CCCN(C(=O)[C@@H]2CN(C(=O)c3cnn(Cc4ccccc4)c3)CC23CN(C(=O)[C@H]2CC2(C)C)C3)C1)C1CCCCC1 [I-181] | > 10 |
| CC1(C)C[C@@H]1C(=O)N1CC2(CN(C(=O)c3cnn(Cc4ccccc4)c3)C[C@H]2C(=O)N[C@H]2CCCN(C(=O)C3CCCCC3)C2)C1 [I-182] | 5 to 10 |
| CC1(C)C[C@@H]1C(=O)N1CC2(CN(C(=O)c3cnn(Cc4ccccc4)c3)C[C@H]2C(=O)N[C@H]2CCCN(CC3CCCCC3)C2)C1 [I-183] | > 10 |
| CNC(=O)[C@@H](NC(=O)[C@@H]1CN(C(=O)c2scnc2C2CC2)CC12CN(C(=O)[C@H]1CC1(C)C)C2)[C@@H](C)OCC1CCCCC1 [I-185A] | > 10 |
| CNC(=O)[C@@H](NC(=O)[C@H]1CN(C(=O)c2scnc2C2CC2)CC12CN(C(=O)[C@H]1CC1(C)C)C2)[C@@H](C)OCC1CCCCC1 [I-185B] | > 10 |
| CNC(=O)[C@@H](NC(=O)[C@@H]1CN(C(=O)c2cncs2)CC12CN(C(=O)C(C)(C)C)C2)[C@@H](C)OCC1CCCCC1 [I-186A] | 0.5 to 5 |
| CNC(=O)[C@@H](NC(=O)[C@H]1CN(C(=O)c2cncs2)CC12CN(C(=O)C(C)(C)C)C2)[C@@H](C)OCC1CCCCC1 [I-186B] | > 10 |
| COC(=O)[C@@H](CO)NC(=O)[C@@H]1CN(C(=O)c2cnn(Cc3ccccc3)c2)CC12CN(C(=O)[C@H]1CC1(C)C)C2 [I-187A] | > 10 |
| COC(=O)[C@@H](CO)NC(=O)[C@H]1CN(C(=O)c2cnn(Cc3ccccc3)c2)CC12CN(C(=O)[C@H]1CC1(C)C)C2 [I-187B] | > 10 |
| C[C@@H](OCC1CCC(F)(F)CC1)[C@H](NC(=O)[C@@H]1CN(C(=O)c2cn[nH]c2)CC12CN(C(=O)C1(C(F)(F)F)CC1)C2)C(=O)N1CCC(F)(F)CC1 [I-188A] | > 10 |
| C[C@@H](OCC1CCC(F)(F)CC1)[C@H](NC(=O)[C@H]1CN(C(=O)c2cn[nH]c2)CC12CN(C(=O)C1(C(F)(F)F)CC1)C2)C(=O)N1CCC(F)(F)CC1 [I-188B] | > 10 |
| C[C@@H](OCC1CCC(F)(F)CC1)[C@H](NC(=O)[C@@H]1CN(C(=O)c2cnn(Cc3ccc(F)cc3)c2)CC12CN(C(=O)C1(C(F)(F)F)CC1)C2)C(=O)N1CCC(F)(F)CC1 [I-190A] | ≤ 0.5 |
